Experimental data from patent EP0176999A2, “Amino acid derivatives, process for their preparation and pharmaceutical compositions” (BOEHRINGER INGELHEIM KG, priority 1984, dated 1986).

How the values were obtained:
Angiotensin I = test: Lowering of blood pressure raised by i.v. angiotensin I in the anaesthetised rat; format: in vivo, Ratte; details: anaesthetised rat, 0,3 mg/kg i.v.; blood pressure raised beforehand by 0,1 mg/kg Angiotensin I i.v.
Method: So erzeugt N-[N^α-(3-Phenyl-2-S-mercaptopropanoyl)-S-lysyl]-thiazolidin-4-S-carbonsäure an der narkotisierten Ratte in einer Dosierung von 0,3 mg/kg i.v. eine lang anhaltende Blutdrucksenkung von 60 %, wenn man vorher durch eine i.v.-Gabe von 0,1 mg/kg Angiotensin I den Blutdruck steigert; beim N-[N^a-(3-Phenyl-2-S-mercaptopropanoyl)S-lysyl]-S-prolin liegt der Wert bei gleichem Test bei 57 %.

[1] = target: T1, Angiotensin I Converting Enzym (Oryctolagus cuniculus, UniProt P12822); test: Inhibition of angiotensin I converting enzyme in vitro; format: biochemical; details: inhibitor concentration at which the enzyme is 50 % inhibited (Cheung, Cushman method), read-out: Hemmaktivität IC50
T1 sequence (P12822 34-1310): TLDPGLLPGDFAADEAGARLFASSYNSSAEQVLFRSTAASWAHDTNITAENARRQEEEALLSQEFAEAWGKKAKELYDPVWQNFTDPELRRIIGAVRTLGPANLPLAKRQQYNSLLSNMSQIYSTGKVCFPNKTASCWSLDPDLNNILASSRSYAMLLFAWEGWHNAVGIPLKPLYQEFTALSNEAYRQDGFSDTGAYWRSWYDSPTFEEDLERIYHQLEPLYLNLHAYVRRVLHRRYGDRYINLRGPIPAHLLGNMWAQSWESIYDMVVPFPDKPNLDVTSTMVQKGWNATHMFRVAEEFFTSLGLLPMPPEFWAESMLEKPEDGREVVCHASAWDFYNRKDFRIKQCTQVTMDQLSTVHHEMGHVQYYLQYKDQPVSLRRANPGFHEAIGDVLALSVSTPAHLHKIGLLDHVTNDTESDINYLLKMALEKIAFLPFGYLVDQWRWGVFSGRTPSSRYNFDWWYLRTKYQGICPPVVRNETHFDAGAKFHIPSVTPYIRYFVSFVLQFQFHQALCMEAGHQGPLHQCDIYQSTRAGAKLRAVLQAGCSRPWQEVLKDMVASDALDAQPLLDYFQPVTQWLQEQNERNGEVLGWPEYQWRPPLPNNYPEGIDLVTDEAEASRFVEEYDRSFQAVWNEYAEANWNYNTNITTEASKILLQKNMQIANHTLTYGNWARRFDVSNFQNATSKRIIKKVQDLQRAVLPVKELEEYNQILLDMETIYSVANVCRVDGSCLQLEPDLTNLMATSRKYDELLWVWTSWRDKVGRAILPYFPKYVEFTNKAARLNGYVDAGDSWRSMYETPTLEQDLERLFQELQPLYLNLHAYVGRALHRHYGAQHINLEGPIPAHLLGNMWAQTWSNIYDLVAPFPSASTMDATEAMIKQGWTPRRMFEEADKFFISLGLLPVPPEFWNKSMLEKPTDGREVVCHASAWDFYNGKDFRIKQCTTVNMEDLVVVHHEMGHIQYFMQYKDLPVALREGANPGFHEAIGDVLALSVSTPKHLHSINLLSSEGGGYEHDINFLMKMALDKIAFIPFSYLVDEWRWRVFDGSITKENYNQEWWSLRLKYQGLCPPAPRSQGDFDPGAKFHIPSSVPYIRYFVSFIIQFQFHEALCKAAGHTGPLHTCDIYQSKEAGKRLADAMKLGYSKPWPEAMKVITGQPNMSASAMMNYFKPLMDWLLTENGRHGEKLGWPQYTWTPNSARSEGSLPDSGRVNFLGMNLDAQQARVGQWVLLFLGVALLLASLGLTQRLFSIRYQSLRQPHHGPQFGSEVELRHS
Source text: N-[N^α-(3-Phenyl-2-S-mercaptopropanoyl)-S-lysyl]-thiazolidin-4-S-carbonsäure zeigt am Angiotensin I Converting Enzym in vitro eine Hemmaktivität IC50= 4,6 . 10^-9 [M]; die IC50 beträgt beim N-[N^αa-(3-Phenpl-2-S-mercaptopropanoyl)-S-lysyl]-S-prolin 2,7 . 10-^8 [M].
Als IC50 wird hierbei diejenige Hemmstoffkonzentration bezeichnet, bei der das Angiotensin I Converting Enzym zu 50 % gehemmt wird (s. H. S. Cheung, D. W. Cushman, Biochem. Biophys. Acta 293, 451 (1973)).

| IC50 [1] | Compound | lang anhaltende Blutdrucksenkung (Angiotensin I) |
| --- | --- | --- |
| – | NCCCC[C@H](NC(=O)[C@@H](S)Cc1ccccc1)C(=O)N1CCC[C@H]1C(=O)O [Beispiel 11] | 57% |
| 4.6 nM | N-[N^α-(3-Phenyl-2-S-mercaptopropanoyl)-S-lysyl]-thiazolidin-4-S-carbonsäure [Beispiel 3] | 60% |
